Laboratory results published in patent publication US11039613B2, “Germination promoters” (SYNGENTA PARTICIPATIONS AG, priority 2017, dated 2021).
Where two headings read alike, the source gives them in different places.

Assays:
NK Falkone corn seeds [1] = test: Corn seed germination, cold stress (15° C.); type: in vivo; settings: for T50 (% vs control): control T50 = 110 hours
Description: The effect of compounds of Formula (II-1 and III-1) on the germination of NK Falkone corn seeds under salt and cold stress was evaluated as follows.
(§1) NK Falkone corn seeds (harvested in 2015) were sorted by size using a sieve to keep away round seeds.
(§2) The corn seeds were placed in 24 well plates (each plate was considered as one experimental unit or replicate). Germination was initiated by the addition of 200 μl of distilled water containing 0.5% DMSO per well. 8 replicates (i.e. 8 plates) were used for each treatment characterization. Plates were sealed using seal foil (Polyolefin Art. Nr. 900320) from HJ-BIOANALYTIK. All plates were placed in two carrousels in a climatic chamber at 15° C. The experiment was laid out in a completely randomized design in climatic chamber with 60% Relative Humidity.
(§3) Germination was followed over time by taking photographs at different time points. Image analysis was performed automatically with a macro which was developed using the Image J software. A dynamic analysis of germination was carried out by fitting a logistic curve. Three parameters were calculated from the logistic curve: the T50; the slope and the plateau. All three parameters have a high agronomical relevance and are key requirements to ensure a good early crop-establishment. The T50 and slope for a selection of compounds are outlined in Table 2 below. All the values are expressed as percentages compared to an untreated control. All the three parameters are calculated considering 8 replicates and the kinetic parameters are separately determined for each germination curve. Data in bold indicate germination enhancing statistically significant differences between treated seeds and untreated control (p<0.05). T50 corresponds to the time needed for half of the seed population to germinate. Higher negative %-values indicate faster germination. Slope indicates how synchronous the germination of the seed population is. Positive values indicate steeper curve. The steeper the curve, the better and more uniform the germination is.

NK Falkone corn seeds [2] = test: Corn seed germination, salt (NaCl, 100 mM) and cold stresses (15° C.); type: in vivo; settings: cold 15° C. and salt 100 mM NaCl
Description: as §1, §2, §3
(§4) The effect of compounds of Formula (III-1 and P1) on the germination of NK Falkone corn seeds under salt and cold stress was evaluated as follows.
The experimental protocol was the same as in Example B1, except that germination was initiated by the addition of 200 μl of distilled water containing 0.5% DMSO and 100 mM NaCl per well.

NK Falkone corn seeds [3] = test: Corn seed germination, salt (NaCl, 100 mM) stress and optimal temperature (23° C.); type: in vivo; settings: salt (NaCl) stress
Description: as §1
as §2, with “Germination was initiated by the addition of 200 μl of distilled water containing 0.5% DMSO per well.” left out
as §3
The experimental protocol was the same as in Example B1, except that the plates were placed in a climatic chamber at 23° C.

NK Falkone corn seeds [4] = test: Corn seed germination, osmotic stress (PEG 2%) and cold stress (15° C.); type: in vivo; settings: osmotic (PEG 2%) and cold 15° C.
Description: as §1, §2, §3, §4
The experimental protocol was the same as in Example B1, except that germination was initiated by the addition of 200 μl of distilled water containing 0.5% DMSO and 2% PEG per well.

Hydrolytic stability = type: physicochemical; settings: for half-life: aqueous buffer/acetonitrile solution, pH 9, pH 9, buffer/acetonitrile
Description: Prior to conducting the individual hydrolytic stability assays, stock solutions containing 1000 ppm of each test compound (i.e. compounds III-1 and P1) were prepared in acetonitrile.
The reagents used in the assays were prepared as follows. A 20 mM buffer solution was prepared from a stock solution of 20 mM mixed acetate, borate and phosphate buffer and the pH adjusted to 7 or 9 as required.
Test solutions were prepared in LC vials for each test compound in the following manner: Hydrolytic Stability: Buffer (750 μL)+acetonitrile (250 μL)+compound stock solution (2 to 40 μL).
The buffers were initially dispensed into separate glass LC vials, placed into an autosampler complete with thermostat set at 40° C. and allowed to equilibrate for 30 minutes prior to starting the individual assays.
Analysis was carried out on Waters LCMS systems under reverse phase conditions using 10 cm C18 columns and acetonitrile (HPLC grade) acidified water (0.2% formic acid) mobile phase at a flow rate of 1 ml min-1. Peak detection was at the optimum wavelength (230-250 nm) and peak areas were used for quantification
Reactions were initiated by addition of the compound solution and monitored through a series of repeat injections made directly from the vial into the HPLC system at regular time intervals. Initial and subsequent measurements of peak area attributable to the test compound were used to fit exponential half-lives and calculate first-order rate constants.
Consequently, the percentage of compound remaining was recorded at the last assessment time.

With CC1=C[C@H](O/C=C2/C(=O)O[C@@H]3Cc4ccccc4[C@H]23)N(c2cc(C(F)(F)F)cc(C(F)(F)F)c2)C1=O [II-1a] the “Slope (% vs control)” value (NK Falkone corn seeds [1]; Rate 10 μM) was 18.70 % vs control, the “T50 (% vs control)” value (NK Falkone corn seeds [1]; Rate 10 μM) was −2.70 % vs control and the “Slope (% vs control)” value (NK Falkone corn seeds [1]; Rate 50 μM) was 68.50 % vs control. The “T50 (% vs control)” value (NK Falkone corn seeds [1]; Rate 50 μM) was −5.30 % vs control, the “Slope (% vs control)” value (NK Falkone corn seeds [1]; Rate 250 μM) was 37.00 % vs control and the “T50 (% vs control)” value (NK Falkone corn seeds [1]; Rate 250 μM) was −3.20 % vs control. The “Slope compared with closest prior art compound P2” value (NK Falkone corn seeds [1]; at equivalent rates, vs P2) was “higher slope” and the “T50 compared with closest prior art compound P2” value (NK Falkone corn seeds [1]; at equivalent rates, vs P2) was “lower T50”.

With CC1=CC(O/C=C2/C(=O)NC3Cc4ccccc4C23)N(c2cc(C(F)(F)F)cc(C(F)(F)F)c2)C1=O (centres unmarked) [III-1, (1E)-[[1-[3,5-bis(trifluoromethyl)phenyl]-4-methyl-1-oxo-2H-pyrrol-2-yl]oxymethylene]-3,3a,4,8b-tetrahydroindeno[2,1-b]pyrrol-2-one] the “Slope (% vs control)” value (NK Falkone corn seeds [1]; Rate 0.4 μM) was 7.3 % vs control, the “T50 (% vs control)” value (NK Falkone corn seeds [1]; Rate 0.4 μM) was −0.7 % vs control and the “Slope (% vs control)” value (NK Falkone corn seeds [1]; Rate 2 μM) was 14.3 % vs control. The “T50 (% vs control)” value (NK Falkone corn seeds [1]; Rate 2 μM) was 1.3 % vs control, the “Slope (% vs control)” value (NK Falkone corn seeds [1]; Rate 10 μM) was 82.6 % vs control and the “T50 (% vs control)” value (NK Falkone corn seeds [1]; Rate 10 μM) was −8.5 % vs control. The “Slope (% vs control)” value (NK Falkone corn seeds [1]; Rate 50 μM) was 175.6 % vs control, the “T50 (% vs control)” value (NK Falkone corn seeds [1]; Rate 50 μM) was −10.1 % vs control and the “Slope compared with closest prior art compound P1” value (NK Falkone corn seeds [1]; at equivalent rates, vs P1) was “higher slope”. The “Slope (% vs control)” value (NK Falkone corn seeds [2]; Rate 0.4 μM) was −4 % vs control, the “T50 (% vs control)” value (NK Falkone corn seeds [2]; Rate 0.4 μM) was −0.5 % vs control and the “Slope (% vs control)” value (NK Falkone corn seeds [2]; Rate 2 μM) was 7.4 % vs control. For the same molecule, the “T50 (% vs control)” value (NK Falkone corn seeds [2]; Rate 2 μM) was −1.2 % vs control, the “Slope (% vs control)” value (NK Falkone corn seeds [2]; Rate 10 μM) was 54.1 % vs control and the “T50 (% vs control)” value (NK Falkone corn seeds [2]; Rate 10 μM) was −9.3 % vs control. For the same molecule, the “Slope (% vs control)” value (NK Falkone corn seeds [2]; Rate 50 μM) was 114.7 % vs control, the “T50 (% vs control)” value (NK Falkone corn seeds [2]; Rate 50 μM) was −6.1 % vs control and the “Slope (% vs control)” value (NK Falkone corn seeds [3]; Rate 0.4 μM) was 1.2 % vs control. For the same molecule, the “T50 (% vs control)” value (NK Falkone corn seeds [3]; Rate 0.4 μM) was −0.5 % vs control, the “Slope (% vs control)” value (NK Falkone corn seeds [3]; Rate 2 μM) was −0.4 % vs control and the “T50 (% vs control)” value (NK Falkone corn seeds [3]; Rate 2 μM) was −0.2 % vs control. The “Slope (% vs control)” value (NK Falkone corn seeds [3]; Rate 10 μM) was 85.8 % vs control, the “T50 (% vs control)” value (NK Falkone corn seeds [3]; Rate 10 μM) was −11 % vs control and the “Slope (% vs control)” value (NK Falkone corn seeds [3]; Rate 50 μM) was 132.5 % vs control. The “T50 (% vs control)” value (NK Falkone corn seeds [3]; Rate 50 μM) was −15.9 % vs control, the “Slope compared with closest prior art compound P1” value (NK Falkone corn seeds [3]; at equivalent rates, vs P1) was “higher slope” and the “T50 compared with closest prior art compound P1” value (NK Falkone corn seeds [3]; at equivalent rates, vs P1) was “lower T50”. The “Slope (% vs control)” value (NK Falkone corn seeds [4]; Rate 0.4 μM) was 1 % vs control, the “T50 (% vs control)” value (NK Falkone corn seeds [4]; Rate 0.4 μM) was 0.8 % vs control and the “Slope (% vs control)” value (NK Falkone corn seeds [4]; Rate 2 μM) was 3.9 % vs control. For the same molecule, the “T50 (% vs control)” value (NK Falkone corn seeds [4]; Rate 2 μM) was −0.2 % vs control, the “Slope (% vs control)” value (NK Falkone corn seeds [4]; Rate 10 μM) was 7.6 % vs control and the “T50 (% vs control)” value (NK Falkone corn seeds [4]; Rate 10 μM) was −3.6 % vs control. For the same molecule, the “Slope (% vs control)” value (NK Falkone corn seeds [4]; Rate 50 μM) was 23.8 % vs control, the “T50 (% vs control)” value (NK Falkone corn seeds [4]; Rate 50 μM) was −4.0 % vs control and the “Slope compared with closest prior art compound P1” value (NK Falkone corn seeds [4]; at equivalent rates, vs P1) was “higher slope”. For the same molecule, the “T50 compared with closest prior art compound P1” value (NK Falkone corn seeds [4]; at equivalent rates, vs P1) was “lower T50”, the half-life (Hydrolytic stability; 40° C., less polar isomer, read-out: Hydrolytic stability pH9 (t½), less polar isomer (converted)) was greater than 59 h and the half-life (Hydrolytic stability; 40° C., more polar isomer, read-out: Hydrolytic stability pH9 (t½), more polar isomer) was greater than 59 h. The “% remaining, less polar isomer” value (Hydrolytic stability; pH 9, 40° C., at 17.6 hours, less polar isomer) was 97.5% remaining at 17.6 hours, the “% remaining, more polar isomer” value (Hydrolytic stability; pH 9, 40° C., at 17.6 hours, more polar isomer) was 94.9% remaining at 17.6 hours and the “Hydrolytic stability compared with less polar isomer of P1” value (Hydrolytic stability; pH 9, less polar isomer, vs P1) was “more stable”.

With CC1=CC(O/C=C2/C(=O)OC3c4ccccc4CC23)N(c2cc(C(F)(F)F)cc(C(F)(F)F)c2)C1=O (centres unmarked) [Compound P2, reference compound] the “Slope (% vs control)” value (NK Falkone corn seeds [1]; Rate 2 μM) was −19.5 % vs control, the “T50 (% vs control)” value (NK Falkone corn seeds [1]; Rate 2 μM) was −0.8 % vs control and the “Slope (% vs control)” value (NK Falkone corn seeds [1]; Rate 10 μM) was −13.4 % vs control. The “T50 (% vs control)” value (NK Falkone corn seeds [1]; Rate 10 μM) was −2.0 % vs control, the “Slope (% vs control)” value (NK Falkone corn seeds [1]; Rate 50 μM) was −19.7 % vs control and the “T50 (% vs control)” value (NK Falkone corn seeds [1]; Rate 50 μM) was −0.9 % vs control.
